Structures can show the parent of a compound that is named as a salt.
How the values were obtained:
[1] = biological target: T1, human norepinephrine transporter (Homo sapiens, UniProt P23975); assay: hNET receptor binding ([125I]-RTI-55 radioligand); conditions: membranes of HEK-293 cells transfected with human norepinephrine transporter cDNA; 50 pM [125I]-RTI-55; IC50 converted by Cheng-Prusoff; read-out: NET Ki
T1 construct: expressed in transfected cells; host or cells: HEK-293
Procedure: (§1) Cell pastes of HEK-293 cells transfected with a human norepinephrine transporter cDNA were prepared. The cell pastes were resuspended in 400 to 700 ml of Krebs-HEPES assay buffer (25 mM HEPES, 122 mM NaCl, 3 mM KCl, 1.2 mM MgSO4, 1.3 mM CaCl2, and 11 mM glucose, pH 7.4) with a Polytron homogenizer at setting 7 for 30 seconds. Aliquots of membranes (5 mg/ml protein) were stored in liquid nitrogen until used.
The binding assay was set up in Beckman deep-well polypropylene plates with a total volume of 250 μl containing: test compound (10^−5M to 10^−12M), cell membranes, and 50 pM [^125I]-RTI-55 (Perkin Elmer, NEX-272; specific activity 2200 Ci/mmol). The reaction was incubated by gentle agitation for 90 minutes at room temperature and was terminated by filtration through Whatman GF/C filter plates using a Brandel 96-well plate harvester. Scintillation fluid (100 μl) was added to each well, and bound [^125I]-RTI-55 was determined using a Wallac Trilux Beta Plate Counter. Test compounds were run in duplicate, and specific binding was defined as the difference between binding in the presence and absence of 10 μM desipramine.
Excel and GraphPad Prism software were used for data calculation and analysis. IC50 values were converted to K, values using the Cheng-Prusoff equation.

[2] = biological target: T2, human serotonin transporter (Homo sapiens, UniProt P31645); assay: hSERT receptor binding ([125I]-RTI-55 radioligand); conditions: membranes of HEK-293 cells transfected with human serotonin transporter cDNA; 50 pM [125I]-RTI-55; IC50 converted by Cheng-Prusoff; read-out: SERT Ki
T2 construct: expressed in transfected cells; host or cells: HEK-293
T2 sequence (P31645 whole entry): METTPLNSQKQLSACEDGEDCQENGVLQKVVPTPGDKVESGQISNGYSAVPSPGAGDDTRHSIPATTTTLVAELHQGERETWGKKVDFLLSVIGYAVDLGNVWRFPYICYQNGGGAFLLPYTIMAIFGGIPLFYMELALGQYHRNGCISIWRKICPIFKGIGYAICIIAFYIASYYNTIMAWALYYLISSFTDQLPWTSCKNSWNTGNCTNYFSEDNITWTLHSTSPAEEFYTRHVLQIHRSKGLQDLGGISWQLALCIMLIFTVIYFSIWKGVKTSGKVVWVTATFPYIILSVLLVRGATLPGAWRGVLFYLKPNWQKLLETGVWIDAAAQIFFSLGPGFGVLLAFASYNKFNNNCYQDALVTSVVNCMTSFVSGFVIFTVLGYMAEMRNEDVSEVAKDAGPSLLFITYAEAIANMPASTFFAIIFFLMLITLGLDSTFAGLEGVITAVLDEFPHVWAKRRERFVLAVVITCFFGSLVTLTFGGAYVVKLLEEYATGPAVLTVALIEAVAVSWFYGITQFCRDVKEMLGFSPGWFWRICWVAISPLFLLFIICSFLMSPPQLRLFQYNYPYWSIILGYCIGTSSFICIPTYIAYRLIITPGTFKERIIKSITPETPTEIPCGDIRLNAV
Procedure: as §1, with “serotonin” for “norepinephrine”, “Setting” for “setting”, “(˜2.5” for “(5”
Assays were set up in FlashPlates pre-coated with 0.1% PEI in a total volume of 250 μl containing: test compound (10^−5M to 10^−12M), cell membranes, and 50 pM [^125I]-RTI-55 (Perkin Elmer, NEX-272; specific activity 2200 Ci/mmol). The reaction was incubated and gently agitated for 90 minutes at room temperature, and terminated by removal of assay volume. Plates were covered, and bound [^125I]-RTI-55 was determined using a Wallac Trilux Beta Plate Counter. Test compounds were run in duplicate, and specific binding was defined as the difference between binding in the presence and absence of 10 μM citalopram.
Excel and GraphPad Prism software were used for data calculation and analysis. IC50 values were converted to Ki values using the Cheng-Prusoff equation.

T1 sequence (P23975 whole entry): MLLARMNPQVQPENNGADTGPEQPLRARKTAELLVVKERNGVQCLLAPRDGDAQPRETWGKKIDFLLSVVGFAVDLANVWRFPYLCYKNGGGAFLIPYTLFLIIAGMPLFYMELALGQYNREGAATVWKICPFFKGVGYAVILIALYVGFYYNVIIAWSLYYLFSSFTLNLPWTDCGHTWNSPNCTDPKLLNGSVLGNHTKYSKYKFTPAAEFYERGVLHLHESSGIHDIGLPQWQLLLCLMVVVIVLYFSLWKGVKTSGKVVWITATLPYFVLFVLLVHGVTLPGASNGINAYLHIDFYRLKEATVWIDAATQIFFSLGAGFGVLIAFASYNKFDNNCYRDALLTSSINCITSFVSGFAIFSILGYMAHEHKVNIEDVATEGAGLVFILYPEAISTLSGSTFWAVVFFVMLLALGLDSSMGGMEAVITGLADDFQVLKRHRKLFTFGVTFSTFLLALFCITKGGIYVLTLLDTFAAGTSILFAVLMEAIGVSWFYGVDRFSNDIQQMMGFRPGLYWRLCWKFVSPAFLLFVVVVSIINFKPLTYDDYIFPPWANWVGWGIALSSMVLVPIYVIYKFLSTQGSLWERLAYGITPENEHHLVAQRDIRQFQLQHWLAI

| Compound | Ki [1] | Ki [2] |
| --- | --- | --- |
| N#Cc1cccc(-c2ccccc2CO[C@H]2CCNC2)c1 [Example D-30] | 371 nM | 285 nM |
| COc1cccc(-c2ccccc2CO[C@H]2CCNC2)c1 [Example D-22, (S)-3-(3′-Methoxy-biphenyl-2-ylmethoxy)-pyrrolidine] | 139 nM | 27.3 nM |
| CC(=O)c1ccccc1-c1ccccc1CO[C@H]1CCNC1 [Example D-42, (S)-1-[2′-(Pyrrolidin-3-yloxymethyl)-biphenyl-2-yl]-ethanone] | 2540 nM | ≥ 10000 nM |
| CCOc1ccc(-c2ccccc2CO[C@H]2CCNC2)cc1 [Example D-40, (S)-3-(4′-Ethoxy-biphenyl-2-ylmethoxy)-pyrrolidine] | 1260 nM | 919 nM |
| COc1cccc(-c2ccccc2CO[C@H]2CCNC2)c1C(=O)N(C(C)C)C(C)C [Example D-60, (S)-3-Methoxy-2′-(pyrrolidin-3-yloxymethyl)-biphenyl-2-carboxylic acid diisopropylamide] | ≥ 10000 nM | 882 nM |
| FC(F)(F)c1ccc(-c2ccccc2CO[C@H]2CCNC2)cc1 [Example D-55, (S)-3-(4′-Trifluoromethyl-biphenyl-2-ylmethoxy)-pyrrolidine] | ≥ 10000 nM | 201 nM |
| CCc1ccccc1-c1ccc(F)cc1CO[C@H]1CCNC1 [Example D-113, (S)-3-(2′-Ethyl-4-fluoro-biphenyl-2-ylmethoxy)-pyrrolidine] | 1340 nM | 1470 nM |
| COc1cc(-c2ccccc2CO[C@H]2CCNC2)cc(OC)c1OC [Example D-57, (S)-3-(3′,4′,5′-Trimethoxy-biphenyl-2-ylmethoxy)-pyrrolidine] | ≥ 10000 nM | 589 nM |
| COc1ccccc1-c1ccc(F)cc1CO[C@H]1CCNC1 [Example D-72, (S)-3-(4-Fluoro-2′-methoxy-biphenyl-2-ylmethoxy)-pyrrolidine] | 205 nM | 356 nM |
| Clc1ccccc1-c1ccccc1CO[C@H]1CCNC1 [Example D-19, (S)-3-(2′-Chloro-biphenyl-2-ylmethoxy)-pyrrolidine] | 108 nM | 346 nM |
| FC(F)(F)Oc1ccccc1-c1ccccc1CO[C@H]1CCNC1 [Example D-37, (S)-3-(2′-Trifluoromethoxy-biphenyl-2-ylmethoxy)-pyrrolidine] | 1000 nM | 5650 nM |
| COc1ccc(Cl)cc1-c1ccccc1CO[C@H]1CCNC1 [Example D-44, (S)-3-(5′-Chloro-2′-methoxy-biphenyl-2-ylmethoxy)-pyrrolidine] | 3340 nM | 12.4 nM |
| COc1ccccc1-c1ccccc1CO[C@H]1CCNC1 [Example D-24, (S)-3-(2′-Methoxy-biphenyl-2-ylmethoxy)-pyrrolidine] | 230 nM | 1260 nM |
| FC(F)(F)Oc1ccc(-c2ccccc2CO[C@H]2CCNC2)cc1 [Example D-43, (S)-3-(4′-Trifluoromethoxy-biphenyl-2-ylmethoxy)-pyrrolidine] | 2670 nM | 16.9 nM |
| COc1ccc(Cl)cc1-c1ccc(F)cc1CO[C@H]1CCNC1 [Example D-61, (S)-3-(5′-Chloro-4-fluoro-2′-methoxy-biphenyl-2-ylmethoxy)-pyrrolidine] | 993 nM | 794 nM |
| Cc1cc(C)n(-c2cccc(-c3ccc(F)cc3CO[C@H]3CCNC3)c2)n1 [Example D-112, (S)-1-[4′-Fluoro-2′-(pyrrolidin-3-yloxymethyl)-biphenyl-3-yl]-3,5-dimethyl-1H-pyrazole] | 9630 nM | 107 nM |
| COc1ccc(-c2ccccc2CO[C@H]2CCNC2)cc1OC [Example D-36, (S)-3-(3′,4′-Dimethoxy-biphenyl-2-ylmethoxy)-pyrrolidine] | 635 nM | 150 nM |
| Fc1ccc(-c2ccc(Cl)c(Cl)c2)c(CO[C@H]2CCNC2)c1 [Example D-83, (S)-3-(3′,4′-Dichloro-4-fluoro-biphenyl-2-ylmethoxy)-pyrrolidine] | 109 nM | 71.6 nM |
| Fc1ccc(-c2ncccc2CO[C@H]2CCNC2)c(F)c1 [Example B-1, (S)-2-(2,4-Difluoro-phenyl)-3-(pyrrolidin-3-yloxymethyl)-pyridine fumarate] | 1020 nM | 5650 nM |
| Fc1ccc(-c2cccc(-n3cccn3)c2)c(CO[C@H]2CCNC2)c1 [Example D-116, (S)-1-[4′-Fluoro-2′-(pyrrolidin-3-yloxymethyl)-biphenyl-3-yl]-1H-pyrazole] | 688 nM | 38.7 nM |
| COc1ccc(-c2ccccc2CO[C@H]2CCNC2)cc1 [Example D-28, (S)-3-(4′-Methoxy-biphenyl-2-ylmethoxy)-pyrrolidine] | 301 nM | 1100 nM |
| Cc1cc(F)ccc1-c1ccc(F)cc1CO[C@H]1CCNC1 [Example D-106, (S)-3-(4,4′-Difluoro-2′-methyl-biphenyl-2-ylmethoxy)-pyrrolidine] | 121 nM | 372 nM |
| COc1cc(-c2ccc(F)cc2CO[C@H]2CCNC2)cc(OC)c1OC [Example D-105] | 1520 nM | 577 nM |
| c1cc(-c2ccccc2CO[C@H]2CCNC2)cc(-n2cccn2)c1 [Example D-45, (S)-1-[2′-(Pyrroldin-3-yloxymethyl)-biphenyl-3-yl]-1H-pyrazole] | 3340 nM | 12.4 nM |
| COc1ccc(F)cc1-c1ccccc1CO[C@H]1CCNC1 [Example A-22, fumarate] | ≥ 10000 nM | 136 nM |

Molecules with a lower Ki [1], results first:

| Ki [1] | Ki [2] | Compound |
| --- | --- | --- |
| 15.3 nM | 20.5 nM | Fc1ccc(-c2ccccc2CO[C@H]2CCNC2)cc1 [Example A-8, (S)-3-(4′-Fluoro-biphenyl-2-ylmethoxy)-pyrrolidine maleate] |
| 25.7 nM | 99.7 nM | Fc1cccc(-c2cccc(F)c2CO[C@H]2CCNC2)c1F [Example A-33, (3S)-3-[(2′,3,3′-trifluorobiphenyl-2-yl)methoxy]pyrrolidine fumarate] |
| 15.8 nM | 102 nM | Fc1ccc(-c2cc(F)ccc2CO[C@H]2CCNC2)c(F)c1 [Example A-23, (S)-(5,2′,4′-Trifluoro-biphenyl-2-ylmethoxy)-pyrrolidine hydrochloride] |
| 11.3 nM | 12 nM | Fc1ccc(-c2ccccc2CO[C@H]2CCNC2)cc1F [Example A-5, (S)-3-(3′-4′-Difluoro-biphenyl-2-ylmethyloxy)-pyrrolidine hydrochloride] |
| 21.9 nM | 208 nM | Fc1ccc(F)c(-c2ccccc2CO[C@H]2CCNC2)c1 [Example D-8, (S)-3-(2′,5′-Difluoro-biphenyl-2-ylmethoxy)-pyrrolidine] |
| 41.6 nM | 101 nM | Clc1ccc(-c2ccccc2CO[C@H]2CCNC2)cc1 [Example D-12, (S)-3-(4′-Chloro-biphenyl-2-ylmethoxy)-pyrrolidine] |
| 55.4 nM | 272 nM | c1ccc(-c2cccc3ccccc23)c(CO[C@H]2CCNC2)c1 [Example D-15, (S)-3-(2-Naphthalen-1-yl-benzyloxy)-pyrrolidine] |
| 26.2 nM | 152 nM | Fc1ccc(CO[C@H]2CCNC2)c(-c2ccccc2F)c1 [Example A-25, (S)-(5,2′-Difluoro-biphenyl-2-ylmethoxy)-pyrrolidine hydrochloride] |
| 60 nM | 108 nM | Fc1ccc(-c2ccc(F)c(F)c2)c(CO[C@H]2CCNC2)c1 [Example D-71, (S)-(4,3′,4′-Trifluoro-biphenyl-2-ylmethoxy)-pyrrolidine] |
| 102 nM | 88.4 nM | Cc1cc(-c2ccc(F)cc2CO[C@H]2CCNC2)ccc1F [Example D-94, (S)-3-(4,4′-Difluoro-3′-methyl-biphenyl-2-ylmethoxy)-pyrrolidine] |
| 67.5 nM | 204 nM | c1ccc(-c2ccccc2CO[C@@H]2CCNC2)cc1 [Example A-14, (R)-3-(Biphenyl-2-ylmethoxy)-pyrrolidine hydrochloride] |
| 39.2 nM | 10.3 nM | Fc1ccc(-c2ccccc2CO[C@H]2CCNC2)cc1Cl [Example A-11, (S)-3-(3′-Chloro-4′-fluoro-biphenyl-2-ylmethoxy)-pyrrolidine hydrochloride] |
